Test results taken from patent US6284896A, “Abeo-ergoline derivatives as 5HT1A ligands” (Pharmacia & Upjohn S.p.A., priority 1994, dated 2001).
Like-named read-outs stand apart in the source and are kept apart here.

Legend:
[1] = target: D1 receptor; test: D1 receptor binding (Binding Profile table)
[2] = target: T1, 5-HT2 receptor (Rattus norvegicus, UniProt P14842); test: Affinity for Serotonin 2 (5-HT2) receptor, 3H-Ketanserin binding test (rat cerebral cortex); settings: 3H-Ketanserin 0.2 mM (so in the source), 37° C., 20 minutes, read-out: Binding Profile IC50 5-HT2
T1 construct: Freezed cerebral cortex dissected out from rats were homogenized; from tissue; host or cells: rat cerebral cortex, crude synaptosome membranes
Method: Experiment 2: Affinity for Serotonin 2(5-HT2) Receptor (^3 H-Ketanserin Binding Test).
Preparation of crude synaptosome fraction and binding assay were conducted according to the method reported in Molecular Pharmacology, vol. 21, page 301, 1981 by Leysen et al.
Freezed cerebral cortex dissected out from rats were homogenized in 30 volumes of ice-cold 0.32M sucrose solution and the suspension was centrifuged at 1000×g for 10 minutes at 0° C. The supernatant was centrifuged at 40,000×g for 20 minutes at 0° C. and the resulting pellets was homogenized in 30 volumes of ice-cold 50 mM Tris-HCl buffer (pH 7.7) and incubated at 37° C. for 10 minutes. The suspension was centrifuged at 40,000×g for 20 minutes at 0° C. again. The resulting pellet was homogenized in 100 volumes of the above buffer and provided as synaptosome membranes solutiofifor the next assay.
To the aliquots (900μ) of synaptosome membranes solution were added 50 μl solution ^3 H-Ketanserin solution at the terminal concentration of 0.2 mM and 50 μl of test compound or its medium, and incubated at 37° C. for 20 minutes. After completion of the reaction, the mixture was rapidly vacuum-filtered through Whatman^R GF/B filters. The filters were washed three times with 5 ml of the above buffer, and then the radioactivity of the residue remaining on the filters was measured by liquid scintillation counter. Non specific binding was determined under the presence of 10 μM of mianserin. 50% inhibition concentration (ICY) of the test compound was graphically determined.

[3] = target: T2, D2 receptor (Rattus norvegicus, UniProt P61169); test: Affinity for Dopamine 2 (D2) receptor, 3H-Spiperone binding test (rat corpus striatum)
T2 construct: Freezed corpus striatum dissected out from rats were homogenized; from tissue; host or cells: rat corpus striatum, crude synaptosome membranes
Method: Experiment 3: Affinity for Dopamine 2 (D2) Receptor (^3 H-Spiperone Binding Test).
Preparation of crude synaptosome fraction and binding assays were conducted in accordance with the method reported in European Journal of Pharmacology, vol. 46, page 377, 1977 by I. Creese et al. Freezed corpus striatum dissected out from rats were homogenized in 100 volumes of ice-cold 50 mM Tris-HCl buffer (pH 7.7) and the suspension was centrifuged at 500×g for 10 minutes at 0° C. The supernatant was centrifuged at 50,000×g for 15 minutes at 0° C. and the resulting pellet was homogenized in 100 volumes of the above buffer and then the suspension was centrifuged at 50,000×g for 15 minutes at 0° C. again. The resulting pellet was homogenized in 150 volumes of 50 mM Tris-HCl buffer (pH 7.1) containing 120 mM potassium chloride, 2 mM calcium chloride, 1 mM magnesium chloride, 0.1% ascorbic acid and 10 μM pargyline. The suspension was incubated at 37° C. for 10 minutes and then provided as synaptosome membranes solution for the next assays. To the aliquots (900 μ) of synaptosome membranes solution were added 50 μl of 3H-Spiperone solution at the terminal concentration of 0.2 nM and 50 μl of test compound solution or 50 μl of its medium, and incubated at 37° C. for 20 minutes. After completion of the reaction, the mixture was rapidly vacuum-filtered through WhatmanR GF/B filters. The filters were washed three times with 5 ml of the above buffer, and then the radioactivity of the residue remaining on the filters was measured by liquid scintillation counter. Non specific binding was determined under presence of 100 μM of (L)-Sulpiride 50% inhibition concentration (IC50) of the test compound was graphically determined.

[4] = target: T3, 5-HT1A receptor (Rattus norvegicus, UniProt P19327); test: Affinity for Serotonin 1A receptor, 3H-8-OH-DPAT binding test (rat hippocampus synaptosome membranes)
T3 construct: Freezed hippocampus dissected out from rats were homogenized; from tissue; host or cells: rat hippocampus, crude synaptosome membranes
T3 sequence (P19327 1-422): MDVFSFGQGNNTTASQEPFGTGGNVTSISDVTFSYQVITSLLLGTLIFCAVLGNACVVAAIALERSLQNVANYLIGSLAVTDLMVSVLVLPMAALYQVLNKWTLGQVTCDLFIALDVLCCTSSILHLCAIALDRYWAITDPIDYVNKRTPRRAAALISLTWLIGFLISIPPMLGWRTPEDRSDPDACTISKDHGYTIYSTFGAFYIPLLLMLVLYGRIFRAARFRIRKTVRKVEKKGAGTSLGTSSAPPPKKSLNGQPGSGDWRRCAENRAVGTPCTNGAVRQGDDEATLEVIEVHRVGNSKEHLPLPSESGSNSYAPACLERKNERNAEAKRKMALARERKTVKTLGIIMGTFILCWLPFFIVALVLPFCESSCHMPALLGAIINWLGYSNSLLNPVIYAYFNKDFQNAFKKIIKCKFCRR
Method: Experiment 1: Affinity for Serotonin 1A (^5 KT1A) Receptor [^3 H-8-Hydroxy-2-dipropylaminotetralin (^3-8 -OH-DPTA)-Binding Test].
Preparation of crude synaptosome fraction and binding assay were conducted in accordance with the method reported in Journal of Neurochemistry, vol.
The supernatant was centrifuged at 40,000×g for 20 minutes at 0° C. and the resulting pellet was homogenized in 40 volumes of the above buffer and incubated at 37° C. for 10 minutes.
After completion of reaction, the suspension was centrifuged at 40,000×g for 20 minutes at 0° C. The resulting pellet was washed twice by resuspension in 40 volumes of the above buffer and centrifugation, and finally suspended in 60 volumes of ice-cold 50 mM Tris-HCl buffer (pH 7.4) containing 1 EM manganese chloride for use in the next assay.
To the aliquots (900 μl) of synaptosome membranes solution were added 50 μl of tritiated 8-OH-DPAT solution at the terminal concentration of 0.2 nM and 50 μl of test compound solution or 50 μl of its medium, and incubated at 37° C. for 10 minutes. Then to the mixture were added 5 ml of ice-cold 50 mM Tris-HCl buffer (pH 7.4) rapidly vacuum-filtered through Whatman^R GF/B. filters and was washed twice with 5 ml of the same buffer. The radioactivity of the residue remaining on the filters was measured by liquid scintillation counter. Non specific binding was determined under the presence of 10^-5 M serotonin (5-HT).

[5] = 3H-Spiperone 0.2 nM, rat corpus striatum, 37° C., 20 minutes, read-out: Binding Profile IC50 D2
[6] = read-out: Binding Profile IC50 5-HT1A, tritiated 8-OH-DPAT 0.2 nM, rat hippocampus, 37° C., 10 minutes
[7] = tritiated 8-OH-DPAT 0.2 nM, rat hippocampus, 37° C., 10 minutes, read-out: Binding Profile IC50 5-HT1A

T2 sequence (P61169 whole entry): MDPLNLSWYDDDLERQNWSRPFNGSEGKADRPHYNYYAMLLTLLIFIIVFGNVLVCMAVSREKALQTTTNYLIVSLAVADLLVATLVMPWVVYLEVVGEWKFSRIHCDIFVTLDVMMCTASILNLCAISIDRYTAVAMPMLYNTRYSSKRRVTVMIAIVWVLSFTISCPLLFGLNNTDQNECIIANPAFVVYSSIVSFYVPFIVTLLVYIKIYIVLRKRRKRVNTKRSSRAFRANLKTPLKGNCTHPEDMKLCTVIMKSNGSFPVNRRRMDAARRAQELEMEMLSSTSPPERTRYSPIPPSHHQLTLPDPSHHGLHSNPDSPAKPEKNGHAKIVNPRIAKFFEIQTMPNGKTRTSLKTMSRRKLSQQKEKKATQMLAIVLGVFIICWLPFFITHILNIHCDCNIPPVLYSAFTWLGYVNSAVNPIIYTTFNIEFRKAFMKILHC
T1 sequence (P14842 whole entry): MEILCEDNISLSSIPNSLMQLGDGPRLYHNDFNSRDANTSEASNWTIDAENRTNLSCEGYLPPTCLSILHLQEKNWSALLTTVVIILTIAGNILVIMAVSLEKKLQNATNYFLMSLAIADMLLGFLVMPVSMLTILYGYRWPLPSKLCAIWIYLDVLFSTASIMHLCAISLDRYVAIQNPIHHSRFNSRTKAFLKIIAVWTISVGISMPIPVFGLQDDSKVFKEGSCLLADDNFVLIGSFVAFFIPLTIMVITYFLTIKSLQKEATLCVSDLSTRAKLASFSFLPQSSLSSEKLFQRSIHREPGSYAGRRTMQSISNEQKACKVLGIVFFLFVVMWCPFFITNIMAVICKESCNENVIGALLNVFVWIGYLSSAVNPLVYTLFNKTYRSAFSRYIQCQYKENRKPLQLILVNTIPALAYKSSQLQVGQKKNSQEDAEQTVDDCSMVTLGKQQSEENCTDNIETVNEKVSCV

Structure (SMILES) | IC50 [3, 5] [nM] | IC50 [4, 7] [nM] | IC50 [1] [nM] | IC50 [2] [nM] | IC50 [3] [nM] | IC50 [4] [nM] | IC50 ([3]; read-out: Binding Profile IC50 D2, 3H-Spiperone 0.2 nM, rat corpus striatum, 37° C., 20 minutes) [nM] | IC50 [4, 6] [nM]
C[C@H]1CN(C)[C@@H]2C[C@@H]3CNc4ccc(Br)c(c43)C=C21 [Example 39, 5β(10→9)abeo-2,3β-Dihydro-9,10-didehydro-6-methyl-8β-methyl-12-bromo-ergoline] | – | – | 7100 | 2080 | 130 | 6 | – | –
C[C@H]1CN(C)[C@@H]2Cc3c[nH]c4cccc(c34)C=C21 [Example 3, 5β(10→9)abeo-9,10-Didehydro-6-methyl-8β-methyl-ergoline] | 940 | – | 1850 | 110 | – | 6 | – | –
C[C@H]1CN(C)[C@@H]2Cc3c[nH]c4ccc([N+](=O)[O-])c(c34)C=C21 [Example 42, 5β(10→9)abeo-9,10-Didehydro-6-methyl-8β-methyl-14-nitro ergolina] | – | – | > 10000 | 1860 | – | – | 2000 | 18
C[C@H]1CN(C)[C@@H]2C[C@@H]3CNc4cccc(c43)C=C21 [Example 33, 5β(10→9)abeo-2,3β-Dihydro-9,10-didehydro-6-methyl-8β-methyl-ergoline] | > 10000 | – | > 10000 | > 10000 | – | – | – | 6
CC(=O)N1C[C@H]2C[C@@H]3C(=Cc4cccc1c42)[C@@H](C)CN3C [Example 34, 5β(10→9)abeo-2,3β-Dihydro-9,10-didehydro-1-acetyl-6-methyl-8β-methyl-ergoline] | 5000 | 100 | > 10000 | > 10000 | – | – | – | –
CSc1[nH]c2cccc3c2c1C[C@@H]1C(=C3)[C@@H](C)CN1C [Example 5, 5β(10→9)abeo-9,10-Didehydro-2-methylthio-6-methyl-8β-methyl-ergoline] | – | – | 2540 | 800 | 850 | 800 | – | –

Further lines, with some results ahead:

IC50 [3, 5] [nM] | IC50 [4, 7] [nM] | Structure (SMILES) | IC50 [1] [nM] | IC50 [2] [nM] | IC50 [3] [nM] | IC50 [4] [nM] | IC50 ([3]; read-out: Binding Profile IC50 D2, 3H-Spiperone 0.2 nM, rat corpus striatum, 37° C., 20 minutes) [nM] | IC50 [4, 6] [nM]
4480 | 100 | C[C@H]1CN(C)[C@@H]2C[C@@H]3CN(C(N)=O)c4cccc(c43)C=C21 [Example 36, 5β(10→9)abeo-2,3β-Dihydro-9,10-didehydro-1-amino-carbonyl-6-methyl-8β-methyl-ergoline] | > 10000 | > 10000 | – | – | – | –
620 | 330 | C[C@H]1CN(C)[C@@H]2Cc3c(Br)[nH]c4cccc(c34)C=C21 [Example 4, 5β(10→9)abeo-9,10-Didehydro-2-bromo-6-methyl-8β-methyl-ergoline] | 1920 | 1000 | – | – | – | –
4870 | 3 | C[C@H]1CN(C)[C@@H]2C[C@@H]3CNc4ccc([N+](=O)[O-])c(c43)C=C21 [Example 40, 5β(10→9)abeo-2,3β-Dihydro-9,10-didehydro-6-methyl-8β-methyl-12 nitro-ergoline] | 2750 | 1240 | – | – | – | –
6030 | 530 | CC(=O)N1C[C@@H]2C[C@@H]3C(=Cc4cccc1c42)[C@@H](C)CN3C [Example 35, 5β(10→9)abeo-2,3α-Dihydro-9,10-didehydro-1-acetyl-6-methyl-8β-methyl-ergoline] | > 10000 | > 10000 | – | – | – | –
